Measured values published in patent publication US20110046056A1, “APOA-1 PEPTIDE MIMETICS” (priority 2007, published 2011).
*1 amine or outer side, *2 acyl side, *3 side chain or, on linkers, in order; H or OH if unused. Where a SMILES comes first, the peptide text is derived from it. Bridges are numbered along the chain shown (N, C = ends). Where no end group is shown, it is not given here. [ ]: non-standard residue; d: D form. dNle(6-ylidene) = O=C([C@@H](CCCC=[*:3])N[*:1])[*:2]; X2 = O=C([C@@H](CCCCC=[*:3])N[*:1])[*:2]; X3 = O=C([C@H](CCCCCC=[*:3])N[*:1])[*:2]; Ala(5-hexenyl) = C=CCCCCC[C@H](N)C(=O)O; dNle(6-vinyl) = C=CCCCC[C@@H](N)C(=O)O; R5 = C=CCCC[C@@](C)(N)C(=O)O; 12H3 = not defined here

B1: CONS[(RS)12H3^13] (peptide)
peptide: Ac-PVLDEFREKLNE[12H3]LEALKQKLK
modifications: not fully specified (C-terminus); printed as PVLDEFREKLNE-(RS)12H3-LEALKQKLK; reading uncertain

Legend:
[1] = biological target: T1, ABCA1 cholesterol transporter protein (Mus musculus, UniProt P41233); experiment: ABCA1-dependent cholesterol efflux from RAW mouse macrophage cells (in vitro RCT assay); format: cell-based; conditions: for EC50: read-out: EC50 in the cholesterol efflux assay (RCT in vitro assay)
T1 construct: endogenous in cells
Summary of the method: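 RAW macrophages labelled with ^3H-cholesterol (5 μCi/ml) 24 h, equilibrated overnight serum-free, then given eight-point peptide titrations 24 h with or without 150 μM CPT-cAMP. Percent efflux = medium counts/(medium + lysate); plain-medium efflux subtracted from cAMP value gives ABCA1-dependent efflux, fitted for EC50.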

[2] = Lipid (liposome) solubilization, turbidimetric method; format: biochemical; conditions: for IC50: read-out: IC50 in the liposome solubilization assay
Experimental: As noted above, the other important parameter was phospholipid solubilization. A turbidimetric method is used to determine the solubilization capacity of peptides of the present invention. First, a three-fold serial titration of the peptide is prepared in a polypropylene v-shaped 96-well plate. The eight-point titration is done in phosphate-buffered saline (PBS, pH 7.5) or DMSO from a starting concentration that allows for addition to an optically-clear bottomed assay plate in <100 μl aliquots to yield a starting concentration of 500 μM in 200 μl final well volume. PBS is then added to each well to bring the total volume to 100 μl. Any bubbles in the wells must be dispersed to avoid erroneous results. Next, from a turbid but homogeneous emulsion of dimyristoyl phosphatidylcholine at 0.5 mg/ml in PBS, 100 μl is added to each well in the assay plate, the plate is inserted into the NEPHELOSTAR (BMG LABTECH INSTRUMENTS), and readings are taken immediately and every 15 minutes over 2 hours.
A true 0-point value is calculated by averaging the readings of the wells with phospholipid but no peptide. For each peptide concentration, a percent decrease in turbidity is calculated by subtracting the 0-point value from the corresponding 30 and 120 minute readings and dividing by that 0-point value. Finally the EC50 values for both time points are determined using PRISM software (Table 2).

[3] = biological target: ATP-binding cassette transporter A1 (ABCA1) (mouse, UniProt P41233 1-2261); experiment: cell-based or functional assay
Sequence of ATP-binding cassette transporter A1 (ABCA1) (P41233 whole entry): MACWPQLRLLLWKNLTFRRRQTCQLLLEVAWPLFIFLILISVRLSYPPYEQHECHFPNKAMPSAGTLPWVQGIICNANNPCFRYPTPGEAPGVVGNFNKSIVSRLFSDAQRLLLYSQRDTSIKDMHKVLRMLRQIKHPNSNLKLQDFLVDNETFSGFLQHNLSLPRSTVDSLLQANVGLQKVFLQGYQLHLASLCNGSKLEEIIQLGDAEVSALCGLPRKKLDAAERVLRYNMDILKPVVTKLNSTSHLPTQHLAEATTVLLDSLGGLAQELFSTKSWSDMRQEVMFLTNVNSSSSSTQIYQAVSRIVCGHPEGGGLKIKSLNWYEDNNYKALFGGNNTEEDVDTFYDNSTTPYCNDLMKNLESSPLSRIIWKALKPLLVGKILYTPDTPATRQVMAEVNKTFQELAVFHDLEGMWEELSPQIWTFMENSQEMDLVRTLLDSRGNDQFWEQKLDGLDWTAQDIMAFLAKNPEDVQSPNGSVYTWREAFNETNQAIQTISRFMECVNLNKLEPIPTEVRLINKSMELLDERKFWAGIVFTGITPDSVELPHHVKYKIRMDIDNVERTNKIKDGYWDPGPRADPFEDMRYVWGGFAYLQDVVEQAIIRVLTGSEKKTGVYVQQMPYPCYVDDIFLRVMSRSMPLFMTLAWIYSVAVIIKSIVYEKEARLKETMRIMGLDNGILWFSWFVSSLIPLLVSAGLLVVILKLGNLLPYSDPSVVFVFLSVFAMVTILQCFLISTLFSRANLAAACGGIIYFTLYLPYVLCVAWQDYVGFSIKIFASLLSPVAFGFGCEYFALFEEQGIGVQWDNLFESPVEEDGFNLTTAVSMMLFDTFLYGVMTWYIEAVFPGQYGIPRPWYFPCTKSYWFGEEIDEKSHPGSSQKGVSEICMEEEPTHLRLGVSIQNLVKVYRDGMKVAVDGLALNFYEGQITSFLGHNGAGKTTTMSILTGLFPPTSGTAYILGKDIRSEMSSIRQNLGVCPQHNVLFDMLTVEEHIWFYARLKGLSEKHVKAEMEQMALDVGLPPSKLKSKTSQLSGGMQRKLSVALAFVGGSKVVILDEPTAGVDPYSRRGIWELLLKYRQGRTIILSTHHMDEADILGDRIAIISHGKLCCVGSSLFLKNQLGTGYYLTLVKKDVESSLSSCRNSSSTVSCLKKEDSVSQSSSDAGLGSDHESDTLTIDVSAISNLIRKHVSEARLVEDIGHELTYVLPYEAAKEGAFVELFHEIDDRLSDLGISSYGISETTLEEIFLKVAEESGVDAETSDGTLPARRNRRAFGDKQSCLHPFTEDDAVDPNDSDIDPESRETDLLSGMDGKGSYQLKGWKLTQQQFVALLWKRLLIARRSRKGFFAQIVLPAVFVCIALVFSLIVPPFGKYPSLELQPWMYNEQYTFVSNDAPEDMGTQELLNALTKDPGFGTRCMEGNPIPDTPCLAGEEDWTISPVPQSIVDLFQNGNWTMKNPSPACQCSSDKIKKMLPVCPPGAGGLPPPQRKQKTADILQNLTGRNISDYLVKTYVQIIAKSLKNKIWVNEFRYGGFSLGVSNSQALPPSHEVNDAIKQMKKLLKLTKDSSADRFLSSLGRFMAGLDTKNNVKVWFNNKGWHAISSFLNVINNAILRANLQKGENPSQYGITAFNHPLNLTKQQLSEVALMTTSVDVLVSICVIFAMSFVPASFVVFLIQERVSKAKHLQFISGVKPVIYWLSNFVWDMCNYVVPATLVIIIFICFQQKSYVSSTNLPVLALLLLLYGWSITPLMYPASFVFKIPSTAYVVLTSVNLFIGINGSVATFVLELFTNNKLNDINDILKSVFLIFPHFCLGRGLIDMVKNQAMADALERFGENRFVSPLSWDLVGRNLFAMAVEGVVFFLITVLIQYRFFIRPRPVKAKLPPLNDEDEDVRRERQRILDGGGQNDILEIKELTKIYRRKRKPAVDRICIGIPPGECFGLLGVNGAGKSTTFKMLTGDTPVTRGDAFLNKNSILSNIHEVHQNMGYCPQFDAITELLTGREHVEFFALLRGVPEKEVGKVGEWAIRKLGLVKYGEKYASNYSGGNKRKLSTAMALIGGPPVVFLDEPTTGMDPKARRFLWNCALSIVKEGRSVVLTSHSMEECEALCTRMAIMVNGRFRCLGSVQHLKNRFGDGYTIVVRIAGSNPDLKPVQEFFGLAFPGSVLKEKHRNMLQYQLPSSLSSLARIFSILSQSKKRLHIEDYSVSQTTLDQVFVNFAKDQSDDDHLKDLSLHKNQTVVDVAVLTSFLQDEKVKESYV

T1 sequence (P41233 whole entry): as above

Molecule	activity in the cholesterol efflux / in vitro RCT assay, in words [1]	lipid binding / ability to clear liposome turbidity, in words [2]	EC50 [1]	IC50 [2]	EC50 in the RCT in vitro assay [3]
Ac-PVLDEFREKLNEELEALKQKLK-NH2 [SEQ ID NO 1, reference compound]	inactive	inactive			
PVLDEFRES5HLNES5HLEALKQKLK (Ac-PVLDEFRE[S5H]LNE[S5H]LEALKQKLK; not fully specified (C-terminus)) [SEQ ID NO 15]	very low to no activity	good lipid binding			
C=CCCCCC[C@H](NC(=O)[C@H](CCC(=O)O)NC(=O)[C@H](CC(=O)O)NC(=O)[C@H](CC(C)C)NC(=O)[C@@H](NC(=O)[C@@H]1CCCN1C(C)=O)C(C)C)C(=O)N[C@@H](CCCNC(=N)N)C(=O)N[C@@H](CCC(=O)O)C(=O)N[C@@H](CCCCN)C(=O)N[C@@H](CC(C)C)C(=O)N[C@@H](CC(N)=O)C(=O)N[C@@H](CCC(=O)O)C(=O)N[C@H](CCCCC=C)C(=O)N[C@@H](CC(C)C)C(=O)N[C@@H](CCC(=O)O)C(=O)N[C@@H](C)C(=O)N[C@@H](CC(C)C)C(=O)N[C@@H](CCCCN)C(=O)N[C@@H](CCC(N)=O)C(=O)N[C@@H](CCCCN)C(=O)N[C@@H](CC(C)C)C(=O)N[C@@H](CCCCN)C(N)=O [SEQ ID NO 10, PVLDES7HREKLNER6HLEALKQKLK] (Ac-PVLDE[Ala(5-hexenyl)]REKLNE[dNle(6-vinyl)]LEALKQKLK-NH2; C-terminus assumed)			1.2 µM	44 µM	
CC(=O)N1CCC[C@H]1C(=O)N[C@H](C(=O)N[C@@H](CC(C)C)C(=O)N[C@@H](CC(=O)O)C(=O)N[C@@H](CCC(=O)O)C(=O)N[C@@H]1CCCCC=CCCCCC[C@@H](C(=O)N[C@@H](CC(C)C)C(=O)N[C@@H](CCC(=O)O)C(=O)N[C@@H](C)C(=O)N[C@@H](CC(C)C)C(=O)N[C@@H](CCCCN)C(=O)N[C@@H](CCC(N)=O)C(=O)N[C@@H](CCCCN)C(=O)N[C@@H](CC(C)C)C(=O)N[C@@H](CCCCN)C(N)=O)NC(=O)[C@H](CCC(=O)O)NC(=O)[C@H](CC(N)=O)NC(=O)[C@H](CC(C)C)NC(=O)[C@H](CCCCN)NC(=O)[C@H](CCC(=O)O)NC(=O)[C@H](CCCNC(=N)N)NC1=O)C(C)C [SEQ ID NO 14, PVLDER6HREKLNES7HLEALKQKLK (CYCLO R6H6-S7H13)] (Ac-PVLDE[X2]REKLNE[X3]LEALKQKLK-NH2; staple 6-13; C-terminus assumed)			2 µM	43 µM	
PVLDEFRER5MELNER5MELEALKQKLK (Ac-PVLDEFRE[R5]LNE[R5]LEALKQKLK; not fully specified (C-terminus); bridges not given here) [SEQ ID NO 16]	very low to no activity	good lipid binding			
CC(=O)N1CCC[C@H]1C(=O)N[C@H](C(=O)N[C@@H](CC(C)C)C(=O)N[C@@H](CC(=O)O)C(=O)N[C@@H](CCC(=O)O)C(=O)N[C@@H](Cc1ccccc1)C(=O)N[C@@H](CCCNC(=N)N)C(=O)N[C@@H](CCC(=O)O)C(=O)N[C@@H]1CCCC=CCCC[C@H](C(=O)N[C@@H](CC(C)C)C(=O)N[C@@H](CCC(=O)O)C(=O)N[C@@H](C)C(=O)N[C@@H](CC(C)C)C(=O)N[C@@H](CCCCN)C(=O)N[C@@H](CCC(N)=O)C(=O)N[C@@H](CCCCN)C(=O)N[C@@H](CC(C)C)C(=O)N[C@@H](CCCCN)C(N)=O)NC(=O)[C@H](CCC(=O)O)NC(=O)[C@H](CC(N)=O)NC(=O)[C@H](CC(C)C)NC1=O)C(C)C [SEQ ID NO 12, PVLDEFRER5HLNER5HLEALKQKLK (CYCLO R5H9-R5H13)] (Ac-PVLDEFRE[dNle(6-ylidene)]LNE[dNle(6-ylidene)]LEALKQKLK-NH2; staple 9-13; C-terminus assumed)			10 µM	60 µM	
B1					0.2 to 0.4 µM
